Where two headings read alike, the source gives them in different places.
Experiments:
[1] = test system: human liver cancer cell line HepG2; assay: MTT growth inhibition, baicalein and baicalin single or combination; assay type: cell-based
Text: The results of experiments with human liver cancer cell line HepG2 are illustrated in Table 1;

[2] = test system: Human colon cancer cell line HCT116; assay: as above; assay type: cell-based
Text: Human colon cancer cell line HCT116—Table 2;

[3] = test system: Human hung cancer cell line A549; assay: as above; assay type: cell-based
Text: Human hung cancer cell line A549—Table 3;

[4] = test system: Human gastric cancer cell line MKN28; assay: as above; assay type: cell-based
Text: Human gastric cancer cell line MKN28—Table 4;

[5] = test system: Human leukemia cell line HL60; assay: as above; assay type: cell-based
Text: Human leukemia cell line HL60—Table 8.

[6] = test system: Murine melanoma cell line B 16; assay: Solid tumor transplant model, baicalein and baicalin; assay type: in vivo; conditions: B16 mice, day 1-10; for Final Tumor WT. (g) Mean ± SD / Tumor Growth Inhibition %: day 15
Method: C57BL/6 female mice (weight approximately 20 g) were used in this study. Murine melanoma cell line B 16 cells, 2×10^6 tumor cells were implanted s.c. into the armpit of each mice after two passenges in vitro cultured. On the next day after implantation, mice were randomly grouped at 10 per group and received 0.1 ml/10 g weight of the drugs. […] The number of mice of each group was 10. Mice were weighed before and post the treatment. Animals were killed on day 15, and the tumors were removed and weighted.

L1210 cells = assay type: in vivo; conditions: day 1-10; for ILS(%) increase of life span: L1210 mice
Method: L1210 cells on the growth phase were injected at 1×10^5 cells via I.P. into BDF1 female mice (weight approximately 20 g). The next day of implantation, mice were grouped, and received an injection of 0.1 ml/10 g weight of the drug. […] The number of mice of each group was 10. Mice were weighed before and after the treatment. Survival time of each mouse was recorded. The results of changes in increasing of life span of mice were used in assessment of response. The increase of life span was determined as; increase of life span rate=(median survival time of treated animals/median survival time of control animals−1)×100%, the data were analyzed by t-test.

[7] = test system: Human esophagus cancer cell line TE2
[8] = test system: Human breast cancer cell line MCF-7
[9] = test system: Human prostate cancer cell line PC3

Question: Which “Inhibition of cell growth (%)” value ([1]; single dose 2.5 μm) does the source give for O=C(O)[C@H]1O[C@@H](Oc2cc3oc(-c4ccccc4)cc(=O)c3c(O)c2O)[C@H](O)[C@@H](O)[C@@H]1O [BG, baicalin] here?
Answer: The value was 16.63 ± 2%.

Question: And the “Inhibition of cell growth (%)” value ([1]; single dose 5 μm)?
Answer: Its value is 16.8 ± 2%.

Question: And the “Inhibition of cell growth (%)” value ([1]; single dose 10 μm)?
Answer: The value was 34.93 ± 3.8%.

Question: What about the “Inhibition of cell growth (%)” value ([1]; single dose 20 μm) of the same molecule?
Answer: Its value is 50 ± 2.9%.

Question: And the “Inhibition of cell growth (%)” value ([1]; single dose 40 μm)?
Answer: Its value is 86.69 ± 3%.

Question: And the “Inhibition of cell growth (%)” value ([2]; single dose 2.5 μm)?
Answer: Its value is 17 ± 2%.

Question: And the “Inhibition of cell growth (%)” value ([2]; single dose 5 μm)?
Answer: Its value is 20 ± 3.2%.

Question: And the “Inhibition of cell growth (%)” value ([2]; single dose 10 μm)?
Answer: Its value is 27 ± 3%.

Question: What about the “Inhibition of cell growth (%)” value ([2]; single dose 20 μm) of the same molecule?
Answer: Its value is 33.75 ± 3%.

Question: And the “Inhibition of cell growth (%)” value ([2]; single dose 40 μm)?
Answer: Its value is 90 ± 2%.

Question: And the “Inhibition of cell growth (%)” value ([3]; single dose 2.5 μm)?
Answer: Its value is 9.8 ± 2%.

Question: What about the “Inhibition of cell growth (%)” value ([3]; single dose 5 μm) of the same molecule?
Answer: Its value is 17 ± 3%.

Question: And the “Inhibition of cell growth (%)” value ([3]; single dose 10 μm)?
Answer: Its value is 30.58 ± 3.2%.

Question: What about the “Inhibition of cell growth (%)” value ([3]; single dose 20 μm) of the same molecule?
Answer: The value was 53.58 ± 4%.

Question: What about the “Inhibition of cell growth (%)” value ([3]; single dose 40 μm) of the same molecule?
Answer: The value was 92 ± 3%.

Question: What about the “Inhibition of cell growth (%)” value ([4]; single dose 2.5 μm) of the same molecule?
Answer: The value was 5.2 ± 2%.

Question: And the “Inhibition of cell growth (%)” value ([4]; single dose 5 μm)?
Answer: Its value is 12 ± 3%.

Question: What about the “Inhibition of cell growth (%)” value ([4]; single dose 10 μm) of the same molecule?
Answer: Its value is 30.2 ± 2.9%.

Question: What about the “Inhibition of cell growth (%)” value ([4]; single dose 20 μm) of the same molecule?
Answer: The value was 62 ± 3.2%.

Question: And the “Inhibition of cell growth (%)” value ([4]; single dose 40 μm)?
Answer: Its value is 85.22 ± 2%.

Question: What about the “Inhibition of cell growth (%)” value ([5]; single dose 2.5 μm) of the same molecule?
Answer: Its value is 5 ± 2%.

Question: And the “Inhibition of cell growth (%)” value ([5]; single dose 5 μm)?
Answer: The value was 8.6 ± 3%.

Question: And the “Inhibition of cell growth (%)” value ([5]; single dose 10 μm)?
Answer: Its value is 21 ± 4%.

Question: And the “Inhibition of cell growth (%)” value ([5]; single dose 20 μm)?
Answer: The value was 45.1 ± 2.9%.

Question: What about the “Inhibition of cell growth (%)” value ([5]; single dose 40 μm) of the same molecule?
Answer: Its value is 82.7 ± 2.3%.

Question: And the “Final Tumor WT. (g) Mean ± SD” value ([6]; BG 25 mg/kg i.p.)?
Answer: The value was 1.81 ± 0.1 g.

Question: What about the “Tumor Growth Inhibition %” value ([6]; BG 25 mg/kg i.p.) of the same molecule?
Answer: Its value is 16.97%.

Question: What about the “Final Tumor WT. (g) Mean ± SD” value ([6]; BG 50 mg/kg i.p.) of the same molecule?
Answer: The value was 1.77 ± 0.117 g.

Question: And the “Tumor Growth Inhibition %” value ([6]; BG 50 mg/kg i.p.)?
Answer: The value was 18.8%.

Question: What about the “Final Tumor WT. (g) Mean ± SD” value ([6]; BG 100 mg/kg i.p.) of the same molecule?
Answer: Its value is 1.51 ± 0.11 g.

Question: And the “Tumor Growth Inhibition %” value ([6]; BG 100 mg/kg i.p.)?
Answer: Its value is 30.7%.

Question: And the “Final Tumor WT. (g) Mean ± SD” value ([6]; BG 200 mg/kg i.p.)?
Answer: Its value is 1.28 ± 0.07 g.

Question: What about the “Tumor Growth Inhibition %” value ([6]; BG 200 mg/kg i.p.) of the same molecule?
Answer: Its value is 41.28%.

Question: What about the “Weight Change %” value ([6]; BG 25 mg/kg i.p.) of the same molecule?
Answer: Its value is under 5%.

Question: And the “Weight Change %” value ([6]; BG 50 mg/kg i.p.)?
Answer: Its value is under 5%.

Question: And the “Weight Change %” value ([6]; BG 100 mg/kg i.p.)?
Answer: Its value is under 5%.

Question: And the “Weight Change %” value ([6]; BG 200 mg/kg i.p.)?
Answer: The value was under 5%.

Question: What about the “Number of mice Surviving through 15 days/total number” value (L1210 cells; BG 25 mg/kg i.p.) of the same molecule?
Answer: The value was 10/10.

Question: What about the “Number of mice Surviving through 15 days/total number” value (L1210 cells; BG 50 mg/kg i.p.) of the same molecule?
Answer: Its value is 10/10.

Question: What about the “Number of mice Surviving through 15 days/total number” value (L1210 cells; BG 100 mg/kg i.p.) of the same molecule?
Answer: Its value is 10/10.

Question: And the “Number of mice Surviving through 15 days/total number” value (L1210 cells; BG 200 mg/kg i.p.)?
Answer: The value was 10/10.

Question: What about the “ILS(%) increase of life span” value (L1210 cells; BG 25 mg/kg i.p.) of the same molecule?
Answer: Its value is 17.3%.

Question: And the “ILS(%) increase of life span” value (L1210 cells; BG 50 mg/kg i.p.)?
Answer: Its value is 27.55%.

Question: What about the “ILS(%) increase of life span” value (L1210 cells; BG 100 mg/kg i.p.) of the same molecule?
Answer: The value was 38.27%.

Question: And the “ILS(%) increase of life span” value (L1210 cells; BG 200 mg/kg i.p.)?
Answer: The value was 50%.

Question: And the “Inhibition of cell growth (%)” value ([7]; single dose 2.5 μm)?
Answer: The value was 6.2 ± 1.8%.

Question: What about the “Inhibition of cell growth (%)” value ([7]; single dose 10 μm) of the same molecule?
Answer: Its value is 28.2 ± 2.5%.

Question: And the “Inhibition of cell growth (%)” value ([7]; single dose 20 μm)?
Answer: Its value is 49.8 ± 1.78%.

Question: What about the “Inhibition of cell growth (%)” value ([7]; single dose 40 μm) of the same molecule?
Answer: The value was 72.7 ± 2.1%.

Question: And the “Inhibition of cell growth (%)” value ([8]; single dose 2.5 μm)?
Answer: The value was 0.5 ± 2.7%.

Question: What about the “Inhibition of cell growth (%)” value ([8]; single dose 5 μm) of the same molecule?
Answer: The value was 10.2 ± 1%.

Question: And the “Inhibition of cell growth (%)” value ([8]; single dose 10 μm)?
Answer: Its value is 48.02 ± 2%.

Question: And the “Inhibition of cell growth (%)” value ([8]; single dose 20 μm)?
Answer: Its value is 60.35 ± 3%.

Question: What about the “Inhibition of cell growth (%)” value ([9]; single dose 2.5 μm) of the same molecule?
Answer: The value was 1 ± 3%.

Question: What about the “Inhibition of cell growth (%)” value ([9]; single dose 5 μm) of the same molecule?
Answer: The value was 17.9 ± 5%.

Question: What about the “Inhibition of cell growth (%)” value ([9]; single dose 10 μm) of the same molecule?
Answer: The value was 47 ± 8%.

Question: And the “Inhibition of cell growth (%)” value ([9]; single dose 20 μm)?
Answer: The value was 62 ± 7%.

Question: And the “Inhibition of cell growth (%)” value ([9]; single dose 40 μm)?
Answer: The value was 88 ± 7%.

From patent US20080176932A1, “Pharmaceutical Compositions Containing Baicalein And Baicalin With Synergistic Effect In Tumor Treatment” (priority 2005, published 2008)
